Source: PubChem BioAssay (NCI)
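Five concentrations, 48 hours, 96-well plates. At the TGI there is no net growth.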

How the values were obtained:
Assay in all cases: DTP human tumour cell line panel, 48 h
[1] = system: OVCAR-5 ovarian
[2] = system: SN12C renal
[3] = system: MCF7 breast
[4] = system: NCI/ADR-RES ovarian
[5] = system: UO-31 renal
[6] = system: LOX IMVI melanoma
[7] = system: SNB-19 CNS
[8] = system: OVCAR-8 ovarian
[9] = system: M14 melanoma
[10] = system: HOP-92 NSCLC
[11] = system: MDA-MB-435
[12] = system: HT29 colon
[13] = system: U251 CNS
[14] = system: NCI-H460 lung
[15] = system: OVCAR-4 ovarian
[16] = system: DU-145 prostate
[17] = system: RXF 393 renal
[18] = system: CAKI-1 renal
[19] = system: COLO 205 colon
[20] = system: SK-MEL-5 melanoma

SMILES	TGI [1]	TGI [2]	TGI [3]	TGI [4]	TGI [5]	TGI [6]	TGI [7]	TGI [8]	TGI [9]	TGI [10]	TGI [11]	TGI [12]	TGI [13]	TGI [14]	TGI [15]	TGI [16]	TGI [17]	TGI [18]	TGI [19]	TGI [20]
Cc1cccc2c1Oc1ncccc1C2NC(=O)CN(C)C (stereo not given)	> 10 µM	> 10 µM	> 10 µM	> 10 µM	> 10 µM	> 10 µM	> 10 µM	> 10 µM	> 10 µM	> 10 µM	> 10 µM	> 10 µM	> 10 µM	> 10 µM	> 10 µM	–	–	–	–	–
O=CC12CCCN1CCC2	> 100 µM	> 100 µM	–	> 100 µM	> 100 µM	> 100 µM	> 100 µM	–	> 100 µM	–	> 100 µM	> 100 µM	> 100 µM	> 100 µM	> 100 µM	> 100 µM	> 100 µM	> 100 µM	> 100 µM	> 100 µM
NS(=O)(=O)C1CCCCC1C(=O)NNC(=O)C(=O)Nc1nc(=S)[nH][nH]1 (stereo not given)	> 100 µM	> 100 µM	–	–	> 100 µM	> 100 µM	> 100 µM	> 100 µM	> 100 µM	> 100 µM	–	> 100 µM	> 100 µM	> 100 µM	> 100 µM	–	> 100 µM	> 100 µM	> 100 µM	> 100 µM
CNC(=O)N(C)C(=O)c1ccccc1C(=O)N(C)C(=O)NC	> 10 µM	> 10 µM	> 10 µM	> 10 µM	> 10 µM	> 10 µM	> 10 µM	> 10 µM	> 10 µM	> 10 µM	–	> 10 µM	> 10 µM	> 10 µM	> 10 µM	> 10 µM	> 10 µM	> 10 µM	> 10 µM	> 10 µM
O=P1(C(O)c2ccccc2)N(Cc2ccccc2)[C@@H]2CCCC[C@H]2N1Cc1ccccc1 (stereo not given in full)	76.8 µM	43 µM	> 100 µM	> 100 µM	> 100 µM	32.1 µM	> 100 µM	> 100 µM	58.5 µM	–	71 µM	46.3 µM	> 100 µM	> 100 µM	53.1 µM	> 100 µM	> 100 µM	> 100 µM	29.1 µM	> 100 µM
COc1ccc(Sc2ccccc2[N+](=O)[O-])cc1	> 100 µM	> 100 µM	–	–	> 100 µM	> 100 µM	> 100 µM	> 100 µM	> 100 µM	> 100 µM	–	59.9 µM	41.3 µM	> 100 µM	> 100 µM	–	78.7 µM	–	29.7 µM	> 100 µM
COC(=O)C1=C(C)C(=O)C2(CCCCCC2C(=O)OC)C1 (stereo not given)	> 100 µM	> 100 µM	–	–	> 100 µM	–	> 100 µM	> 100 µM	> 100 µM	> 100 µM	–	> 100 µM	> 100 µM	> 100 µM	> 100 µM	–	> 100 µM	> 100 µM	> 100 µM	> 100 µM
N/N=C(\N)SCc1ccc(N=C=S)cc1	> 100 µM	> 100 µM	–	> 100 µM	> 100 µM	> 100 µM	> 100 µM	> 100 µM	–	> 100 µM	> 100 µM	> 100 µM	> 100 µM	> 100 µM	> 100 µM	> 100 µM	> 100 µM	> 100 µM	> 100 µM	> 100 µM
CN(C)c1ccc(/C=C2\CCCCCC2=O)cc1	> 100 µM	> 100 µM	> 100 µM	> 100 µM	> 100 µM	–	> 100 µM	> 100 µM	> 100 µM	–	> 100 µM	> 100 µM	–	> 100 µM	–	> 100 µM	> 100 µM	> 100 µM	> 100 µM	> 100 µM
Nn1c(=S)[nH]nc(/C=C/c2c(O)ccc3ccccc23)c1=O	42.5 µM	–	12.6 µM	14.4 µM	34.8 µM	11.7 µM	> 100 µM	4.81 µM	41.6 µM	–	> 100 µM	21.9 µM	> 100 µM	76.5 µM	25 µM	> 100 µM	–	36.1 µM	27.7 µM	26.5 µM
COc1c(-c2nc3nc(N4CCN(C)CC4)ccc3[nH]2)cc(OC)c2c1nc(CCl)n2C	56.1 µM	> 100 µM	–	> 100 µM	32.8 µM	24 µM	> 100 µM	50.5 µM	33.7 µM	41.9 µM	38.2 µM	32.9 µM	25.8 µM	52.8 µM	44.3 µM	78.2 µM	33.8 µM	33.2 µM	31.1 µM	–
CSC(=NCCCN=C(NS(=O)(=O)c1ccc(Cl)cc1)SC)NS(=O)(=O)c1ccc(Cl)cc1	> 100 µM	> 100 µM	52.8 µM	> 100 µM	40.5 µM	70.6 µM	> 100 µM	> 100 µM	> 100 µM	67.9 µM	> 100 µM	> 100 µM	> 100 µM	> 100 µM	> 100 µM	> 100 µM	–	> 100 µM	51.6 µM	–
O=C(C[N+]1(c2ccccc2)CCOCC1)c1ccccc1	> 100 µM	> 100 µM	–	> 100 µM	> 100 µM	> 100 µM	> 100 µM	> 100 µM	> 100 µM	> 100 µM	> 100 µM	> 100 µM	> 100 µM	> 100 µM	> 100 µM	> 100 µM	> 100 µM	> 100 µM	–	> 100 µM
CCOC(=O)C1(NC(=O)OC(C)(C)C)CCc2[nH]oc(=O)c2C1 (stereo not given)	> 100 µM	> 100 µM	> 100 µM	> 100 µM	> 100 µM	> 100 µM	> 100 µM	> 100 µM	> 100 µM	> 100 µM	> 100 µM	> 100 µM	> 100 µM	> 100 µM	> 100 µM	> 100 µM	–	> 100 µM	> 100 µM	> 100 µM
